Series [1] has as its target T1, D2 (hD2L receptor) (Homo sapiens, UniProt P14416).
T1 construct: purchased BioSignal Packard Inc., Montreal, Canada
The series is described as follows: Radioligand binding assay, dopamine D2. The following applies: [3H] spiperone 1 nM; read-out: Binding affinity IC50 D2. How it is done: (§1) Radioligand binding assays for dopamine receptor family (D1, D2 and D3) were performed according to the protocols provided by the manufacturer of receptor membranes (BioSignal Packard Inc., Montreal, Canada). The radioligands used were [^3H] spiperone (for hD2L and hD3 receptors, 1 nM) and [^3H] YM-09151-2 (hD4.2 receptor, 0.06 nM). Briefly, the buffer used in the D1, D2 and D3 receptor binding assay was 50 mM Tris-HCl (pH 7.4), containing 10 mM MgCl2 and 1 mM EDTA, or 50 mM Tris-HCl (pH 7.4), containing 5 mM MgCl2, 5 mM EDTA, 5 mM KCl, 1.5 mM CaCl2 and 120 mM NaCl. For [^3H] YM-09151-2 receptor binding assays, 50 mM Tris-HCl (pH 7.4) containing 5 mM MgCl2, 5 mM EDTA, 5 mM KCl and 1.5 mM CaCl2, was used as a buffer. Nonspecific binding was determined with haloperidol (10 μM) for D2 and D3 and clozapine (10 μM) for D4 receptors.
(§2) Competition binding studies were carried out with 7-8 concentrations of the test compound run in duplicate tubes, and isotherms from three assays were calculated by computerized nonlinear regression analysis (GraphPad Prism Program, San Diego, […]) to yield median inhibitory concentration (IC50) values.

In series [2] the target is T2, D4 (hD4.2 receptor) (Homo sapiens, UniProt P21917, DEL265-296).
T2 construct: purchased BioSignal Packard Inc., Montreal, Canada
T2 sequence (P21917 with tags, fused parts or gaps DEL265-296): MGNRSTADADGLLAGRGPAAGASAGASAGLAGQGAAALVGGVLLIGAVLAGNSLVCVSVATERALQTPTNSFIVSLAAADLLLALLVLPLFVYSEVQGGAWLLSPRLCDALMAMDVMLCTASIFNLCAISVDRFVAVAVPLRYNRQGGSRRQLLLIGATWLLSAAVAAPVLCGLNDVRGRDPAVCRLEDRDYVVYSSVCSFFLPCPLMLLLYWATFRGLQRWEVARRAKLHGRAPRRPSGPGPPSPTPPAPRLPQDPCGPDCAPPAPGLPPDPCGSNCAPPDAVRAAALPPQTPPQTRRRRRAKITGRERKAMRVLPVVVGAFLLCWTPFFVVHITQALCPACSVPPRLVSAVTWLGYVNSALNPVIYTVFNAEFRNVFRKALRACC
Briefly: Radioligand binding assay, dopamine D4. The settings on record: [3H] YM-09151-2 0.06 nM; read-out: Binding affinity IC50 D4. On the procedure:
as §1, §2

In series [3] the target is 5-HT7 (human recombinant receptor, CHO-K1) (Homo sapiens, UniProt P34969). Briefly: Radioligand binding assay, 5-HT7.
For series [4], the target named is T3, 5-HT1a (human recombinant receptor, CHO-K1) (Homo sapiens, UniProt P08908).
T3 sequence (P08908 1-422): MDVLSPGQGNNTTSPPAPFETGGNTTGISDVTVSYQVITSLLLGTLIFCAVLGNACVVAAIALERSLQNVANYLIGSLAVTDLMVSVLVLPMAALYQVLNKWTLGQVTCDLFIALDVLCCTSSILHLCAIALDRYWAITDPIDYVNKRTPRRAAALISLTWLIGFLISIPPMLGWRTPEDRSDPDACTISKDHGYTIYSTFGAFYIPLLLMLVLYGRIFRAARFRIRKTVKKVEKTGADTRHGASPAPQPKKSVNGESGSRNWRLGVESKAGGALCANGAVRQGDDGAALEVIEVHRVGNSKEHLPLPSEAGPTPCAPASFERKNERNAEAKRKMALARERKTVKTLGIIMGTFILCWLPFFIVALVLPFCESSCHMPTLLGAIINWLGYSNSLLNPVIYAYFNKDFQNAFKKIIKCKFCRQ
Briefly: Radioligand binding assay, 5-HT1a.

The target of series [5] is 5-HT2a (human recombinant receptor, CHO-K1) (Homo sapiens, UniProt P28223). The series is described as follows: Radioligand binding assay, 5-HT2a.
Series [6] has as its target T4, 5-HT2c (human recombinant receptor, CHO-K1) (Homo sapiens, UniProt P28335).
T4 sequence (P28335 33-458): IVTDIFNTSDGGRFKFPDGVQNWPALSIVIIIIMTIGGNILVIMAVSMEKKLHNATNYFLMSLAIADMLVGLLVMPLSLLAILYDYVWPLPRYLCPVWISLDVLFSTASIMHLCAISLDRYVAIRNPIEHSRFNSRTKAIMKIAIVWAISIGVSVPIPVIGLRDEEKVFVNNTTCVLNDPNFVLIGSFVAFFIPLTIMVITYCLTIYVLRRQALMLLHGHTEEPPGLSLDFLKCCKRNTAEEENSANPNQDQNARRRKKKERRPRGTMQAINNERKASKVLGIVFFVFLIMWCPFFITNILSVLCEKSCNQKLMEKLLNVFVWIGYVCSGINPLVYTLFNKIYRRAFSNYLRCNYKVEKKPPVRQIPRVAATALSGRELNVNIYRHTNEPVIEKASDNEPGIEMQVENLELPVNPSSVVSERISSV
The series is described as follows: Radioligand binding assay, 5-HT2c.

In series [7] the target is D3 (hD3 receptor) (Homo sapiens, UniProt P35462). The series is described as follows: Radioligand binding assay, dopamine D3.
The target of series [8] is human serotonin 5-HT6 receptor (Homo sapiens, UniProt P50406). The series is described as follows: [3H]LSD binding assay for cloned 5-HT6 receptors.

A value given as a limit tells only on which side of the number the result lay.

5-HT2a (human recombinant receptor, CHO-K1), sequence (P28223 whole entry): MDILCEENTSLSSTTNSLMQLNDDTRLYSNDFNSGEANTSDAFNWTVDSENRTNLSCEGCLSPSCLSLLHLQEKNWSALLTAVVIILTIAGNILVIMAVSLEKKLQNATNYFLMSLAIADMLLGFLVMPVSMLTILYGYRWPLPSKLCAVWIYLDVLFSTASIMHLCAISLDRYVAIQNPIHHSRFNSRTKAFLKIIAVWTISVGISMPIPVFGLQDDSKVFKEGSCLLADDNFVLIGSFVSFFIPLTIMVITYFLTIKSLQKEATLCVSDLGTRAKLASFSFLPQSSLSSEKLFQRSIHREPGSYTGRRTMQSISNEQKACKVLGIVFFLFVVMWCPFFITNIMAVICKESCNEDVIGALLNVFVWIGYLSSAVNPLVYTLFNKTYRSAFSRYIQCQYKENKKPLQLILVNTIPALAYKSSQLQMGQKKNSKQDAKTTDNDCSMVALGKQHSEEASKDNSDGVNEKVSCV
D3 (hD3 receptor), sequence (P35462 whole entry): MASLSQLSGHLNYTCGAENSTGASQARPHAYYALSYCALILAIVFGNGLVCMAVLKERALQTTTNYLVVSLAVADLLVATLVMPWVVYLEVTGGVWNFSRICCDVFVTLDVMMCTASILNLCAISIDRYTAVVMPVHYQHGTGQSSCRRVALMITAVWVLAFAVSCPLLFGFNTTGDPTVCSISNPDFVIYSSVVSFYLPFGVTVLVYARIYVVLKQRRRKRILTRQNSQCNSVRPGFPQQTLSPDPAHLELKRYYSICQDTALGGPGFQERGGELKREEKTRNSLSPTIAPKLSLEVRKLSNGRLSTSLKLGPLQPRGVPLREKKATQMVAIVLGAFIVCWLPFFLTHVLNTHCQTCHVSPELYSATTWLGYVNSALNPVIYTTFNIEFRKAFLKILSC
T1 sequence (P14416 whole entry): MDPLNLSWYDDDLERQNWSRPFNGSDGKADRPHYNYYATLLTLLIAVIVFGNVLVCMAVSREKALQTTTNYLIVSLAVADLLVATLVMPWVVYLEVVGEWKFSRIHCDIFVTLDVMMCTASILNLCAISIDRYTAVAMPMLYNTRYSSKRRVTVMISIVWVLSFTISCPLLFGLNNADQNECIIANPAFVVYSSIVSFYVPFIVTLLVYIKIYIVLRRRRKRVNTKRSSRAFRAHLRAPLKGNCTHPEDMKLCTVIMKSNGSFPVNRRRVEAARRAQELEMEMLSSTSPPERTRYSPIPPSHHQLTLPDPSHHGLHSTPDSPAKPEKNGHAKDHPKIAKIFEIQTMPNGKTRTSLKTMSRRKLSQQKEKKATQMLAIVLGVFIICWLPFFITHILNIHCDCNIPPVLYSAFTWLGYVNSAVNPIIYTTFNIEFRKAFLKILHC
human serotonin 5-HT6 receptor, sequence (P50406 whole entry): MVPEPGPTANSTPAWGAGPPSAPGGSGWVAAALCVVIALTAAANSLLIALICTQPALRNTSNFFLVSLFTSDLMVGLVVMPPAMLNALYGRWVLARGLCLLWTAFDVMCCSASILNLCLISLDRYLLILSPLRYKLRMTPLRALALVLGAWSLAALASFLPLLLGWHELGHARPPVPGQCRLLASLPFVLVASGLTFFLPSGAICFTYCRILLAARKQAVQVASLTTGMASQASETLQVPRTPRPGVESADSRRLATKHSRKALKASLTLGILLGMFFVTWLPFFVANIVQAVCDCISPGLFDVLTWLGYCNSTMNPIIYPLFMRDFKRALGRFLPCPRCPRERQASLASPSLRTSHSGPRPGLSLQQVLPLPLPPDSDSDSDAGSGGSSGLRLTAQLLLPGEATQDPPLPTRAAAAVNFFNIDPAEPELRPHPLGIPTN
5-HT7 (human recombinant receptor, CHO-K1), sequence (P34969 whole entry): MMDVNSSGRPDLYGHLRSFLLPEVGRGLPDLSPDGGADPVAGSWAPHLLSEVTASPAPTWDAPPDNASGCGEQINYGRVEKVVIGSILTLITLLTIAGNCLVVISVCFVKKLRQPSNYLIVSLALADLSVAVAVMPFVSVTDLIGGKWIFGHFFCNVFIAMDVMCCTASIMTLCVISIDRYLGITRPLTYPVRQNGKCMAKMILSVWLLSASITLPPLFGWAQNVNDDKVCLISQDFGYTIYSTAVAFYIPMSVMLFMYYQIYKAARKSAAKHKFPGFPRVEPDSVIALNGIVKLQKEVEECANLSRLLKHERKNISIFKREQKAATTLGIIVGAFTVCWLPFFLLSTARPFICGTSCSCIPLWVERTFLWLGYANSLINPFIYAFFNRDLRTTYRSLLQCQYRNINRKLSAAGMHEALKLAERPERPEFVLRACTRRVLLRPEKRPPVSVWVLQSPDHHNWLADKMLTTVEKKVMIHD

By IC50 is commonly meant the concentration needed to halve the response being measured. As usually defined, the melting point is the temperature, or range, at which the solid turns liquid. Consider `CN1CCN(c2cc(Cl)cc3c2c(=O)n(Cc2ccccc2Br)c(=O)n3Cc2ccccc2)CC1` [Example 14, 1-benzyl-3-(2-bromo-benzyl)-7-chloro-5-(4-methyl-piperazin-1-yl)-1H-quinazoline-2,4-dione], for which the melting point fell in the range of 91 to 93 °C. Besides, the IC50 in series [1] was found to be 3.32 µM. Moreover, the IC50 in series [2] is above 10 µM. In series [3], the IC50 was determined as 5.94 µM. Also, in [4], the IC50 was determined as 1.08 µM. Also, the IC50 in [5] amounted to 0.394 µM. Besides, in [6], the IC50 was determined as 0.728 µM. Besides, in series [7], the IC50 came out at 0.48 µM. Also, the IC50 in [8] came to 0.0009 µM.
Molecule `Cc1ccc(Cn2c(=O)c3c(N4CCN(C)CC4)cc(Cl)cc3n(Cc3ccccc3)c2=O)cc1` [Example 24, 1-benzyl-7-chloro-3-(4-methyl-benzyl)-5-(4-methyl-piperazin-1-yl)-1H-quinazoline-2,4-dione] returned a melting point of 92 to 97 °C. In series [1], the IC50 is above 10 µM. Moreover, the IC50 in series [2] is above 10 µM. In addition, the IC50 in series [3] is above 10 µM. The IC50 in series [4] amounted to 3.21 µM. In addition, the IC50 in series [5] is 0.733 µM. The IC50 in series [6] was determined as 0.599 µM. Moreover, in [7], the IC50 worked out at 0.435 µM. Also, the IC50 in [8] came to 0.002 µM.
`COc1ccccc1Cn1c(=O)c2c(N3CCN(C)CC3)cc(Cl)cc2n(Cc2ccccc2)c1=O` [Example 25, 1-benzyl-7-chloro-3-(2-methoxy-benzyl)-5-(4-methyl-piperazin-1-yl)-1H-quinazoline-2,4-dione] came in with a melting point of 91 to 96 °C. Besides, the IC50 in [1] is above 10 µM. In [2], the IC50 is above 10 µM. In addition, in [3], the IC50 was above 10 µM. Moreover, in [4], the IC50 is 7.08 µM. For the same molecule, in series [5], the IC50 was 0.916 µM. In series [6], the IC50 turned out to be 0.925 µM. The IC50 in series [7] was found to be 1.33 µM. This molecule yielded a 50% inhibitory concentration (IC50) in [8] of 0.0019 µM.
Regarding `CN1CCN(c2cc(Cl)cc3c2c(=O)n(Cc2cccc([N+](=O)[O-])c2)c(=O)n3Cc2ccccc2)CC1` [Example 32, 1-benzyl-7-chloro-5-(4-methyl-piperazin-1-yl)-3-(3-nitro-benzyl)-1H-quinazoline-2,4-dione], the melting point is 200 to 205 °C. For the same molecule, in series [1], the IC50 is above 10 µM. The IC50 in series [2] was above 10 µM. The IC50 in [3] is above 10 µM. Further, the IC50 in series [4] was 3.8 µM. In addition, the IC50 in [5] stood at 1.8 µM. Further, the IC50 in series [6] amounted to 1.56 µM. Besides, the IC50 in [7] was found to be 0.276 µM. In series [8], this molecule gave an IC50 of 0.0006 µM.
For `CN1CCN(c2cc(Cl)cc3c2c(=O)n(Cc2ccccc2F)c(=O)n3Cc2ccccc2)CC1` [Example 11, 1-benzyl-7-chloro-3-(2-fluoro-benzyl)-5-(4-methyl-piperazin-1-yl)-1H-quinazoline-2,4-dione], the melting point lay in the range of 147 to 149 °C. Also, the IC50 in series [1] was above 10 µM. The IC50 in series [2] was above 10 µM. Also, the IC50 in series [3] is 4.84 µM. In addition, in series [4], the IC50 stood at 1.51 µM. For the same molecule, the IC50 in series [5] was determined as 0.463 µM. For the same molecule, the IC50 in series [6] came out at 0.176 µM. Further, in series [7], the concentration for half-maximal inhibition (IC50) is 2.66 µM. The molecule further came in with an IC50 in [8] of 0.0012 µM.
The molecule `CN1CCN(c2cc(Cl)cc3c2c(=O)n(Cc2ccccc2[N+](=O)[O-])c(=O)n3Cc2ccccc2)CC1` [Example 31, 1-benzyl-7-chloro-5-(4-methyl-piperazin-1-yl)-3-(2-nitro-benzyl)-1H-quinazoline-2,4-dione] came in with a melting point of 164 to 169 °C. For the same molecule, the IC50 in [1] is above 10 µM. The IC50 in series [2] was above 10 µM. The IC50 in [3] is above 10 µM. Moreover, in [4], the IC50 worked out at 2.24 µM. Further, in series [5], the IC50 came out at 0.049 µM. For the same molecule, the IC50 in [6] was 0.952 µM. Besides, the IC50 in series [7] came to 1.24 µM. This molecule displayed an IC50 in series [8] of 0.0014 µM.
With `Cc1cc(C)cc(CCCn2c(=O)c3c(N4CCN(C)CC4)cc(Cl)cc3n(Cc3ccccc3)c2=O)c1` [Example 44, 1-benzyl-7-chloro-3-[3-(3,5-dimethyl-phenyl)-propyl]-5-(4-methyl-piperazin-1-yl)-1H-quinazoline-2,4-dione], the melting point is 67 to 73 °C. Further, the IC50 in series [1] amounted to 0.987 µM. Also, the IC50 in [2] was above 10 µM. Further, the IC50 in series [3] is above 10 µM. Moreover, in [4], the IC50 is 2.78 µM. Moreover, in series [5], the IC50 was 0.197 µM. Further, the IC50 in series [6] was determined as 2.65 µM. Also, the IC50 in series [7] was found to be 0.073 µM. The IC50 in series [8] was found to be 0.002 µM.
As to `CN1CCN(c2cc(Cl)cc3c2c(=O)n(Cc2ccc(Cl)cc2)c(=O)n3Cc2ccccc2)CC1` [Example 19, 1-benzyl-7-chloro-3-(4-chloro-benzyl)-5-(4-methyl-piperazin-1-yl)-1H-quinazoline-2,4-dione], the melting point lay in the range of 92 to 97 °C. Besides, the IC50 in [1] stood at 7.74 µM. The IC50 in series [2] is above 10 µM. Further, the IC50 in [3] amounted to 2.21 µM. Moreover, the IC50 in series [4] turned out to be 3.06 µM. For the same molecule, the IC50 in series [5] is 1.1 µM. In series [6], the IC50 worked out at 0.321 µM. For the same molecule, the IC50 in series [7] was determined as 1.01 µM. Further, the IC50 in series [8] is 0.0031 µM.
In the case of `CCCn1c(=O)c2c(N3CCN(C)CC3)cc(Cl)cc2n(Cc2ccccc2)c1=O` [Example 3, 1-benzyl-7-chloro-5-(4-methyl-piperazin-1-yl)-3-propyl-1H-quinazoline-2,4-dione], the melting point was 120 to 121 °C. The half-maximal inhibitory concentration (IC50) in series [1] is above 10 µM. Further, the IC50 in series [2] was above 10 µM. Moreover, in [3], the IC50 was above 10 µM. The IC50 in [4] was above 10 µM. In series [5], the half-maximal inhibitory concentration (IC50) amounted to 0.718 µM. Also, the IC50 in [6] came to 3.76 µM. In series [7], this molecule had an IC50 of 2.11 µM. Moreover, the IC50 in series [8] was determined as 0.002 µM.
Molecule `CN1CCN(c2cc(Cl)cc3c2c(=O)n(Cc2cccc(Cl)c2)c(=O)n3Cc2ccccc2)CC1` [Example 18, 1-benzyl-7-chloro-3-(3-chloro-benzyl)-5-(4-methyl-piperazin-1-yl)-1H-quinazoline-2,4-dione] had a melting point of 165 to 169 °C. For the same molecule, the IC50 in [1] was 7.32 µM. Also, in series [2], the IC50 was above 10 µM. Moreover, the IC50 in [3] worked out at 1.88 µM. Further, the IC50 in series [4] worked out at 1.78 µM. Moreover, the IC50 in [5] came to 1.38 µM. Moreover, the IC50 in [6] came out at 0.748 µM. Also, in series [7], the IC50 worked out at 0.339 µM. In [8], this molecule showed an IC50 of 0.0021 µM.

The values are drawn from patent US20090203708A1, “NOVEL SUBSTITUTED-1-H-QUINAZOLINE-2,4-DIONE DERIVATIVES, PREPARATION METHOD THEREOF AND PHARMACEUTICAL COMPOSITION CONTAINING THE SAME” (Korea Research Institute of Chemical Technology, priority 2006, published 2009).
